Seven compounds from ChEMBL document CHEMBL1125161, “O'-(epoxyalkyl)tyrosines and (epoxyalkyl)phenylalanine as irreversible inactivators of serine proteases: synthesis and inhibition mechanism” (J Med Chem, 1990) can be followed below.

The target of one assay is Chymotrypsinogen A (Bos taurus, UniProt P00766). In words: (§1) Inhibitory activity against alpha-chymotrypsin.
The target of assay [1] is Chymotrypsinogen A (Bos taurus) (UniProt P00766). In words: (§2) Ratio of the kinetic constants (ki X 10e3) versus Ki was reported.
Assay [2] has the same target. In words: (§3) The ratio (ki + kH)/ki (turnover ratio) was determined using ultimate activity assay.
For assay [3] the target is unchanged. The description is as §1.
Assay [4] shares this target. Briefly: (§4) Ratio of the kinetic constants kH versus ki was reported.
Assay [5] is described as follows: (§5) Inhibitory activity against subtilisin.
Assay [6] is described as follows: as §5. This is another data set of the same source.
Assay [7] can be described thus: as §2.
The nature of assay [8]: as §3.
Assay [9] is described as follows: as §4.
Assay [10] in a line: as §5. The source holds these as a separate data set.
For assay [11], the system named is Subtilisin (Bacillus). Briefly: Ratio of the kinetic constants kH versus ki was reported.
Assay [12] deals with Subtilisin (Bacillus). Briefly: Inhibitory activity against subtilisin.
The test system of assay [13] is Subtilisin (Bacillus). Briefly: The ratio (ki + kH)/ki (turnover ratio) was determined using ultimate activity assay.
The test system of assay [14] is Subtilisin (Bacillus). In words: Ratio of the kinetic constants (ki X 10e3) versus Ki was reported.

At Chymotrypsinogen A, `O=C(N[C@@H](Cc1ccc(OCCC2CO2)cc1)C(=O)Nc1ccc([N+](=O)[O-])cc1)c1ccccc1` (some centres not stated) displayed a Ki of 59 µM. The Ratio in assay [1] came to 14000 M⁻¹ min⁻¹; in assay [2], 20; in [4] it was 60. In [3], this compound displayed a k obs of 0.00056 s⁻¹. Besides, the kH in assay [3] is 0.83 s⁻¹.

In the case of `CCOC(=O)[C@H](Cc1ccc(OCC2CO2)cc1)NC(=O)c1ccccc1` (some centres not stated), the Ki on Chymotrypsinogen A came out at 380 µM. Also, the Ratio in assay [1] came out at 260 M⁻¹ min⁻¹; in assay [2], 68; in assay [4] it was 300. The same compound came in with a k obs in assay [3] of 0.00055 s⁻¹. In addition, the kH in assay [3] turned out to be 5.2 s⁻¹.

Consider `O=C(N[C@@H](Cc1ccc(OCC2CO2)cc1)C(=O)Nc1ccc([N+](=O)[O-])cc1)c1ccccc1` (some centres not stated), for which the Ki at Chymotrypsinogen A is 66 µM. For the same compound, the figures for the Ratio in assay [1], in assay [2] and in assay [4] were 3000 M⁻¹ min⁻¹, 80 and 184, respectively. The k obs in assay [3] is 0.00037 s⁻¹. In addition, the kH in assay [3] is 0.61 s⁻¹.

Turning to `CCOC(=O)[C@H](Cc1ccc(OCCC2CO2)cc1)NC(C)=O` (some centres not stated), the Ki in [5] was 0.0092 s⁻¹; in assay [10], 140 µM. The k obs in [6] turned out to be 0.0014 s⁻¹. For the same compound, the kH in assay [6] worked out at 11.8 s⁻¹. Also, the Ratio in [7] stood at 3900 M⁻¹ min⁻¹; in assay [8], 500; in assay [9], 1300.

Turning to `CCOC(=O)[C@H](Cc1ccc(OCC2CO2)cc1)NC(C)=O` (some centres not stated), the results for the Ratio with Subtilisin (Bacillus) [11], in the assay with Subtilisin (Bacillus) [13] and with Subtilisin (Bacillus) [14] were 3900, 2000 and 1000 M⁻¹ min⁻¹, respectively. The compound further returned a k obs in the assay with Subtilisin (Bacillus) [12] of 0.0011 s⁻¹. Moreover, the kH in the assay with Subtilisin (Bacillus) [12] was found to be 13.8 s⁻¹.

With `CCOC(=O)[C@H](Cc1ccc(OCCCC2CO2)cc1)NC(=O)c1ccccc1` (some centres not stated), the Ki on Chymotrypsinogen A stood at 35 µM. Moreover, the figures for the Ratio in [1], in assay [2] and in [4] were 2400 M⁻¹ min⁻¹, 26 and 109, respectively. Moreover, in assay [3], the k obs came to 0.00017 s⁻¹. The same compound returned a kH in assay [3] of 0.15 s⁻¹.

As to `CCOC(=O)[C@H](Cc1ccc(OCCC2CO2)cc1)NC(=O)c1ccccc1` (some centres not stated), the Ki on Chymotrypsinogen A came out at 57 µM. Also, the Ratio in [1] turned out to be 14600 M⁻¹ min⁻¹; in [2], 13; in [4], 28. In addition, the k obs in assay [3] was found to be 0.00027 s⁻¹. In assay [3], this compound yielded a kH of 0.38 s⁻¹.
